Experimental findings from PMC3931418 (Nature, 2014) are described below.

This assay has as its target BRIL-δOR(ΔN/ΔC) (Sf9) (Homo sapiens, UniProt P41143, P37S). In kind it is binding.

Sequence of BRIL-δOR(ΔN/ΔC) (Sf9) (P41143 36-338 P37S): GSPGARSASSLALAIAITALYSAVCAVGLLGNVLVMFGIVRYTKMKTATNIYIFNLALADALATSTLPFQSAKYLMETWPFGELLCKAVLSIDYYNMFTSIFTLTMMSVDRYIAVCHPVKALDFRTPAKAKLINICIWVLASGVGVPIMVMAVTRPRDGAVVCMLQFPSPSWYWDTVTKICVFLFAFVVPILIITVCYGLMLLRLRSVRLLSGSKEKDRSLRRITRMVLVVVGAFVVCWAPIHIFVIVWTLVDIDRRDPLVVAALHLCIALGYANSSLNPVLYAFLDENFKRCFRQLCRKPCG

As to `[Na+]` [sodium], the “Hill Coefficient” value came out at 0.79 ± 0.02, the “Na+ pKB ± SEM” value is 1.79 ± 0.11, the “pα ± SEM” value is given as 0.86 ± 0.05 and the α stood at 0.138. The Kb (read-out: Na+ KB) worked out at 15.9 mM.
